Source: patent publication EP1192182B1, “PITUITARY ADENYLATE CYCLASE ACTIVATING PEPTIDE (PACAP) RECEPTOR 3 (R3) AGONISTS AND THEIR PHARMACOLOGICAL METHODS OF USE” (priority 1999, dated 2001)
Starred links: 1 amine or outer side, 2 acyl side, 3 side chain; linkers in the order of their positions; H or OH if unused. Non-standard residues stand in square brackets, D forms with d. No end group written: not given here. Tyr(Me) = O-methyl-Tyr (CH3O-Y), COc1ccc(C[C@H](N[*:1])C(=O)[*:2])cc1; Nle = CCCC[C@H](N)C(=O)O

Columns and labels:
PACAP-R2 = biological target: T1, PACAP-R2 (Homo sapiens, UniProt P32241); experiment: Cyclic AMP SPA on CHO cells transfected with PACAP-R2; type: cell-based; conditions: cAMP SPA, EC50 = concentration at which 50% of maximum PACAP27 activity is achieved, NA = no detectable activities
T1 construct: expressed in transfected cells; host or cells: CHO cells
T1 sequence (P32241 31-457): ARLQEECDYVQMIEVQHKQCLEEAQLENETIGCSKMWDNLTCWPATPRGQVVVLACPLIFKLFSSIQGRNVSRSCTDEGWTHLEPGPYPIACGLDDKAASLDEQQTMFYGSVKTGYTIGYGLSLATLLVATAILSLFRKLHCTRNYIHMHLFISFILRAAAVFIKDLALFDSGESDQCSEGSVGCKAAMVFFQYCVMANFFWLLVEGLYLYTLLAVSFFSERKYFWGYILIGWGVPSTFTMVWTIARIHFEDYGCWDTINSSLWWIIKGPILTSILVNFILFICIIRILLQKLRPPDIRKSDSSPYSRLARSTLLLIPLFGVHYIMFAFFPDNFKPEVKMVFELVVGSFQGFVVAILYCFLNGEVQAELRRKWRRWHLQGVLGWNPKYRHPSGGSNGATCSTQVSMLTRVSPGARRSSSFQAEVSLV
Description: (§1) CHO cells expressing the PACAP R3 were plated in 96-well plates (Costar) at 8 x 10^4 cell/well and grown at 37C for 24 hours in a MEM + nucleosides + glutamine (Giobco BRL), 10% FBS, 100 µg/ml Pen/Strep, 0.3 mg/ml glutamine, 1 mM HEPES, 0.5 mg/ml Geneticin (Gibco BRL). The media was removed and the plates were washed with PBS. The cells were incubated with a peptide, in Hepes-PBS-BSA with 0.4mg/mlSoybean Trypsin inhibitor, 0.5 mg/ml Bacitracin, 100uM IBMX, for 15 min at 37 C. Cyclic AMP in the ceii extracts was quantitated using the cAMP SPA direct screening assay system (Amersham Pharmacia Biotech Inc, Piscataway, NJ,). The peptides shown in Table 3 were assayed for cAMP activity.
(§2) EC50 is defined as the concentration of the polypeptide at which 50% of maximum PACAP27 activity is achieved. "NA" denotes no detectable activities. "R3 Selectivity" is derived from the ratio of EC50 at R2 versus EC50 at R3. […]

PACAP-R3 [1] = biological target: T2, PACAP-R3 (Homo sapiens, UniProt P41587); experiment: Cyclic AMP SPA on CHO cells expressing PACAP R3; type: cell-based; design: expressed in transfected cells; host or cells: CHO cells; conditions: cAMP SPA, CHO cells transfected with PACAP-R3; EC50 = concentration at which 50% of maximum PACAP27 activity is achieved; NA = no detectable activities
T2 sequence (P41587 24-438): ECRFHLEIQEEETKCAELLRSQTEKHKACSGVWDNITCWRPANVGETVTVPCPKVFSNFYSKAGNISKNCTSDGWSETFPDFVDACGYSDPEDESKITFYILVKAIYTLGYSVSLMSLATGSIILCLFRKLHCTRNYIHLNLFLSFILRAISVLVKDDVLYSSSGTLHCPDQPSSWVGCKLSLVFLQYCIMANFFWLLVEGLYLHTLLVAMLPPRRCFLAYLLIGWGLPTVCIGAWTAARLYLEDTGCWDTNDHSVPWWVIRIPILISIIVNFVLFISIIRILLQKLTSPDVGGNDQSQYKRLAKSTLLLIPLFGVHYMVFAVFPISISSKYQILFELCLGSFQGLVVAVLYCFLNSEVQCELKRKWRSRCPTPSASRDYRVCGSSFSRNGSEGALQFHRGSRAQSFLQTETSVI
Description: as §1, §2

PACAP-R3 [2] = biological target: T2, PACAP-R3; conditions: literature; cited from earlier work
[3] = Peptide-induced elevation of plasma insulin after IVGTT; type: in vivo; conditions: one minute after IVGTT (0.4g/kg glucose), 1 nmole/kg peptide i.v., Wistar rats
Description: Wistar rats are fasted overnight (17 hrs) and then anesthetized with pentobarbital (0.1 ml/100 g BW). Glucose (0.4 g/kg dissolved in 1% human albumin-saline) +/- peptide (dissolved in 1% human albumin-saline) is injected intravenously into the tail vein. The rats are eye-bled 1 minute after the injection and 50-100ul of the plasma are assayed for insulin level with the Linco RIA kit (Linco Research, Inc., St. Charles, MO).
(§3) In accordance with the protocol of example 2 above, overnight fasted Wistar rats were anesthetized with pentobarital; i.v. injected with glucose ± peptide and eye bled after 1 minute. N=12 rats/group. […] The peptide or vehicle was given i.v. followed by a glucose load given i.p. in accordance with example 3. The plasma glucose was followed over the time period indicated.
Plasma insulin: Data are expressed as % of plasma insulin one minute after IVGTT (0.4g/kg glucose) with either saline, 0.1nmol/kg P51, P55, P60, P66 or 1 nmole/kg of the other peptides including peptides which are not part of the present invention in Wistar rats. Blood was drawn from the eye and insulin was measured with the rat insulin RIA kit (Linco Research, Inc, St. Charles, MO).

rat islets = experiment: Insulin release from isolated rat islets; type: cell-based, Sprague-Dawley rats; conditions: peptide 10nM for 2hrs, 8mM glucose; % of [insulin] in 8mM glucose alone
Description: Sprague Dawley rats (275-320 g) were used as the source of donor islets. Briefly, the pancreas was filled with 10 ml of cold reconstituted Liberase RI (Boehringer Manheim), harvested and incubated with additional 5 ml enzyme solution in water bath for 30 minutes. Tissue suspension was washed twice with cold 10% FBS/Hanks buffer (Gibco), resuspended in 8 ml 25% ficoll (Sigma) and then layered with 5 ml each of 23%, 20% and 11 % ficoll. The islets in the 20% layer after centrifugation were removed, washed twice with cold 10% FBS/Hank buffer and resuspended in 10% FBS/RPMI 1640 media (Sigma).
Islet insulin release: Rat islets were isolated from Sprague-Dawley rats as described in example 1 and treated with either vehicle or specified peptide (10nM) for 2hrs. Insulin concentration in the medium was measured with the Linco rat insulin RIA kit. Glucose concentration in the medium was 8mM. The data are expressed as % of [insulin] in 8mM glucose alone. No polypeptide-induced Increases in insulin concentration were observed al 3 mM glucose; thus, the insulin releasing activity of these polypeptides are glucose-dependent. It should be noted that the following Table includes data for polypeptides which are not part of the present invention.

[4] = Intraperitoneal glucose tolerance test (IPGTT), plasma glucose; type: in vivo, Wistar rats; conditions: for Plasma Glucose (% of Basal) i.v.: 1 nmol/kg peptide i.v.; for glucose disposal in the rat: 1 nmole/kg dose, subcutaneous route, FIG. 7 legend
Description: Wistar rats are fasted overnight and then anesthetized with pentobarbital. The rats were eye-bled (zero time) and the peptide ( in 1% human albumin) was injected into the tail vein. Five minutes later, 1 g/kg of glucose (in saline) was injected intraperitoneally, and the rats were eye-bled after 15, 30 and 60 minutes. Plasma glucose levels were determined using the Technicon Axon autoanalyzer, Bayer Diagnosics division of Bayer Corporation, Tarrytown NY, operated using Method No. SM4-2143F90 "Glucose".
as §3
Wistar rats were fasted overnight and then anesthetized with Pentobarbital. The rats were eye-bled (zero time) and the peptide (in 1 % human albumin) was injected subcutaneously. Five minutes later, 1 g/kg of glucose (in saline) was injected intraperitoneally, and the rats were eye-bled after 30 minutes.
Plasma glucose: Data are expressed as % of vehicle of plasma glucose area under the curve after IPGTT (1 g/kg glucose) after treatment with 1 nmol/kg dose of the peptide. […] The present Inventors have shown for the first time that this is because the effects of R2 and R3 on glucose tend to cancel each other out. […] Therefore, R3-selectlvlty appears to be a desirable attribute for medicaments which are to be employed in achieving blood glucose reduction, for treatment of type 2 diabetes.

[5] = in vivo; cited from earlier work
[6] = Heart rate in conscious dogs; conditions: i.v., AUC of first 10 minutes of heart rate change
Description: Beagle dogs were put into a sling where they have been trained to stand for up to 3 hours. The cuff of the heart rate monitor was placed around the tail of the dog.
Saline was injected into the cephalic vein and heart rate monitored every 2 minutes to establish a baseline. After 10 minutes, peptide, including peptides which are not part of the invention, was injected and heart rate monitored every 2 minutes for the next 20 minutes. If heart rate was normal at that time, a higher dose was given and heart rate monitored for 20 minutes.

[7] = plasma glucose area under the curve after IPGTT (1 g/kg glucose), % of vehicle

## CC[C@H](C)[C@H](NC(=O)CNC(=O)[C@H](CC(=O)O)NC(=O)[C@H](CO)NC(=O)[C@@H](N)Cc1c[nH]cn1)C(=O)N[C@@H](Cc1ccccc1)C(=O)N[C@H](C(=O)N[C@@H](CC(=O)O)C(=O)N[C@@H](CO)C(=O)N[C@@H](CCCCN)C(=O)N[C@@H](CO)C(=O)N[C@@H](CCCNC(=N)N)C(=O)N[C@@H](Cc1ccc(O)cc1)C(=O)N[C@@H](CCCNC(=N)N)C(=O)N[C@@H](CCCCN)C(=O)N[C@@H](CCC(N)=O)C(=O)N[C@@H](CCSC)C(=O)N[C@@H](C)C(=O)N[C@H](C(=O)N[C@@H](CCCCN)C(=O)N[C@@H](CCCCN)C(=O)N[C@@H](Cc1ccc(O)cc1)C(=O)N[C@@H](CC(C)C)C(=O)N[C@@H](C)C(=O)N[C@@H](C)C(=O)N[C@H](C(=O)N[C@@H](CC(C)C)C(N)=O)C(C)C)C(C)C)[C@@H](C)O [PAC10]
PACAP-R2
  EC50: 110 nM
PACAP-R3 [1]
  EC50: 27 nM

## Ac-HSDAVFTEN(CH3O-Y)TKLRKQNIeAAKKYLNDLKK-NH2 (Ac-HSDAVFTEN[Tyr(Me)]TKLRKQ[Nle]AAKKYLNDLKK-NH2) [Peptide R3P4]
PACAP-R3 [2]
  PACAP-R3 selectivity: greater than 100 fold

## Ac-HSDAVFTENYTKLRKQLAAKKYLNDLKKGGT-NH2 [Peptide R3P1]
[3]
  Plasma Insulin (% of Basal): 480 % of Basal
Rat islets
  Islet Insulin Release (% of Basal): 250 % of Basal
[4]; [7]
  Plasma Glucose (% of Basal) i.v.: 73 % of Basal

## HAEGTFTSDV SSYLEGQAAK EFIAWLKGR-NH2 [GLP-1]
[5]
  plasma half-life: a few minutes
[4]
  glucose disposal in the rat: enhance glucose disposal

## HSDAVFTDNYTRLRKQLAAKKYLNDIKK-NH2 [Peptide R3P13]
[3]
  Plasma Insulin (% of Basal): 465 % of Basal
Rat islets
  Islet Insulin Release (% of Basal): 170 % of Basal
[4]
  glucose disposal in the rat: enhance glucose disposal
[4]; 1 nmole/kg s.c., vehicle: 160 mg/dl above basal, Figure 7
  elevation of plasma glucose 30 minutes after IPGTT: significantly reduced
[4]; plasma glucose area under the curve after IPGTT (1 g/kg glucose), % of vehicle, 1 nmol/kg peptide s.c.
  Plasma Glucose (% of Basal) s.c.: 77 % of Basal

## HSDGIFTDSYSRYRKQLAAKKYLADVKK [Peptide R3P38]
PACAP-R2
  EC50: 17 nM
PACAP-R3 [1]
  EC50: 2.3 nM

## [K15, R16, L27]VIP(1-7)/GRF(8-27) [Peptide R2P1]
[3]
  Plasma Insulin (% of Basal): 216 % of Basal
[6]
  potency in heart rate increase, fold less potent than PACAP27 or maxadilan: at least 10 fold
[4]; IPGTT, 1 nmol/kg
  increases plasma glucose level: 14%
[4]; [7]
  Plasma Glucose (% of Basal) i.v.: 114 % of Basal
